The values below come from patent publication US20080200405A1, “Drug Resistance Reversal In Neoplastic Disease” (priority 2007, published 2008).

In series [1] the test system is drug sensitive and resistant cell lines SKN-SH, Neuro2A, Saos2, HL-60. Kind of series: Reversal of drug resistance in various cancer types (OT-551 with or without doxorubicin). Format: cell-based, human, murine. To be noted: in combination with doxorubicin; 96 hours. The protocol: This example illustrates that OT-551 and analogs reverse drug resistance to non-anthracycline drugs in various cancer types. The effects of analogs were tested on drug sensitive and resistant (R) cell lines corresponding to various cancer types, including the human neuroblastoma cell line SKN-SH (ATCC Cat. No. HTB-1), the murine neuroblastoma cell line Neuro2A (ATCC Cat. No. CCL-131), the osteosarcoma cells Saos2 (ATCC Cat. No. HTB-85) and the leukemia cell line HL-60 (ATCC Cat. No. CCL240). The cells were treated with OT-551 with or without doxorubicin as described above. Cell viability was calculated after 96 hours of incubation with the drug combination.

The test system of series [2] is Human whole blood clot formation. To be noted: compound 4 at 1 ug and 10 ug.
For series [3], the system named is VEGF-induced angiogenesis in the CAM model. Nature of the series: VEGF-induced angiogenesis in the CAM model. It is filed as in vivo, chicken. Particulars: for Mean % Inhibition ± SD / Mean Branch points ± SD: VEGF 2 μg/ml. How it is done: In vivo neovascularization was examined by the method previously described by Auerbach et al. (J. Dev. Biol. 41:391-394 (1974)). Ten-day old chicken embryos were purchased from Spafas, Inc. (Preston, Conn.) and were incubated at 37° C. with 55% relative humidity. In the dark, with the aid of a candling lamp, a small hole was punctured in the shell concealing the air sac with a hypodermic needle. A second hole was punctured in the shell on the broadside of the egg directly over an […] portion of the embryonic membrane, as observed during candling. An artificial air sac was created beneath the second hole by applying gentle vacuum to the first hole using a small rubber squeeze bulb. The vacuum caused the chorioallantoic membrane (CAM) to separate from the shell.
A pro-angiogenic agent was added to induce new blood vessel branches on the CAM of 10-day old embryos. Filter disks of #1 filter paper (Whatman International, United Kingdom) were punched using a small puncher and were soaked in 3 mg/mL cortisone acetate (Sigma, St. Louis, Mo.) in a solution (95% ethanol and water). The disks were subsequently air dried under sterile conditions. The disks were then suspended in PBS (Phosphate Buffered Saline) and placed on growing CAMs. Filters treated with TP-H (TEMPOL-H) or TEMPOL and/or H2O2 or TP-H and/or bFGF or VEGF were placed on the first day of the 3-day incubation.
The number of vessel branch points contained in a circular region equal to the area of a filter disk was counted for each section. Percent inhibition data are expressed as the quotient of the experimental value minus the negative control value divided by the difference between the positive control value and the negative control value. One image was counted in each CAM preparation, and findings from eight CAM preparations were analyzed for each treatment condition. In addition, each experiment was performed three times. The resulting angiogenesis index is the mean ±SEM (Standard Error of Measurement) of new branch points in each set of treatment. Statistical analysis of blood vessel branching patterns are performed by 1-way analysis of variance (ANOVA) comparing experimental with corresponding control groups. Statistical significance differences are assessed at P value of <0.05.
TP-H was applied to the CAM model study to determine its respective anti-angiogenesis effects according to the materials and methods described above. VEGF was used to induce angiogenesis in the CAM model.

Series [4] can be described thus: In vitro stability in rat, rabbit, dog, and human plasma (overall statement). Format: in vitro ADME. To be noted: 240 minute incubation in plasma. How it is done:
The active metabolite of OT-551 (Cyclopropanecarboxylic acid 1-hydroxy-2,2,6,6-tetramethyl-piperidin-4-yl ester) is TP-H. The objective of this analysis was to determine the in vitro half-life of OT-551 in rat, rabbit, dog, and human plasma under standardized incubation conditions.
OT-551 was incubated with pooled rat, rabbit, dog, and human plasma for various times under standardized incubation conditions. Pre-labeled tubes containing pooled plasma from rats, rabbits, dogs, and humans were pre-incubated in a shaking 37° C. water bath. A OT-551 solution was added to the tubes at a final concentration of 1000 ng/mL. Time zero samples (n=5) were immediately removed and transferred into tubes containing a stabilizer solution (DTPA, acetylcysteine and ascorbic acid), the LC/MS/MS assay internal standard and methanol. […] The tubes were vortexed, placed on ice, followed by centrifugation. One hundred-μL aliquots of the supernatant were transferred into HPLC sample vials. Additional tubes (n=5 at each time point) were incubated for 5, 10, 20, 30, 60, 120, and 240 minutes at 37° C. and thereafter processed. The amount of OT-551 and TP-H in each incubated sample was quantified using validated LC/MS/MS assays.

The subject of the next series is mouse V79 cells. Particulars: cited from earlier work.

With `CC1(C)CC(OC(=O)C2CC2)CC(C)(C)N1O.Cl` [OT-551, 1-hydroxy-4-cyclopropanecarbonyloxy-2,2,6,6-tetramethylpiperidine hydrochloride], the “effect on doxorubicin toxicity” value in series [1] is given as “able to enhance doxorubicin toxicity in all the drug resistant cell lines tested”. Besides, in series [2], the “effect on clot formation with Bevacizumab/Ranibizumab” value was “completely abrogated the clot formation”.
With `CC1(C)CC(O)CC(C)(C)N1O` [TEMPOL-H], the “Mean % Inhibition ± SD” value in series [3] (100 μg) came out at 37.6 ± 6.9 %; in series [3] (200 μg), 42 ± 3.5 %; in series [3] (400 μg), 53.3 ± 3.3 %; in series [3] (800 μg), 70.7 ± 9.1 %. In addition, the “Mean Branch points ± SD” value is 154.8 ± 7.5 in series [3] (100 μg), 150 ± 3.8 in series [3] (200 μg), 137.8 ± 3.0 in series [3] (400 μg) and 118.8 ± 9.9 in series [3] (800 μg). Besides, in series [3] (in vivo), the “inhibition of VEGF-induced angiogenesis” value is reported as “dose-dependent inhibition”. Also, in series [4], the “stability of TP-H during the incubation period” value is recorded as “stable during the 240 minute incubation period”. For the same compound, the “radioprotection of mouse V79 cells” value in the series on mouse V79 cells is listed as “did not provide any radioprotection”.
